From patent US20250345363A1, “ANTIMICROBIAL AND ANTIBIOFILM COMPOSITIONS AND USES THEREOF” (MHCombiotic Inc., priority 2024, published 2025) come the findings set out here.

Assay type in all cases: cell-based
The test system of assay [1] is bacteria/fungi samples from Example 1. Put plainly: Planktonic susceptibility, MIC and MBC in 96-well microtiter plates. The conditions noted are these: averaged results. On the procedure: Planktonic Susceptibility. Testing of planktonic susceptibility was conducted using MIC and MBC assessments on bacterial strains using 96-well microtiter plates. To prepare the wells for bacteria, serial dilutions of the antibacterial agents were Carried out along the rows of two microtiter plates. The antibacterials were 2-fold diluted with Mueller-Hinton broth (MHB) in each column, reaching a volume of 75 μL. The 1.0 McFarland standard was diluted 15-fold in MHB, and 75 μL of inoculum was added to the wells treated with antibacterials, resulting in a total volume of 150 μL. The microtiter plates were covered, then shake-incubated overnight at 150 rpm and 37° C. MIC was determined based on visible bacterial growth. In cases of Antibacterial opacity or ambiguous results, streaking of well cultures on Mueller-Hinton agar (MHA), overnight incubation, and subsequent comparison to controls were performed. MBC was determined by transferring 3 u L of culture from all MIC microtiter plate wells to 147 μL of MHB in fresh plates. These plates were shake-incubated overnight at 150 rpm and 37° C., and bacterial growth was visually inspected. Combination Antimicrobial Efficacy Testing. This checkerboard (96-well microtiter plates) included one column just media without bacteria/fungi and MBAs/PBCs (as a negative control), and one column without MBA/PBCs, with media, and bacteria/fungi (as a growth and positive controls control), MBAs and/or PBCs were diluted ½ across the rows (19, 20). For each analysis, the same MIC and MBC/MFC steps indicated above were conducted for surveying the bacteriostatic, bactericidal, and reading synergism effects of MBAs with PBCs combinations.
Samples from Example 1 were tested using combinations of additives as well as additives on their own for measuring bacteriostatic effects, bactericidal effects and biofilm inhibition properties.
Method of bacteriostatic effects, bactericidal effects explained in example 1 using MIC and MBC methods, respectively.

The subject of assay [2] is bacteria/candida biofilm (samples from Example 1). Put plainly: Prevention of biofilm formation, MBIC by crystal violet assay. The conditions noted are these: 48 hours at 37° C.; averaged results; unit not given. As to the method: For the prevention of biofilm formation, desired concentrations of metals (loid) and/or PBCs were added to 96 wells, with 1.0×10^6 CFU/ml bacteria/candida added to each well. The plates were then incubated for 48 hours at 37° C. in a microplate shaker incubator at 150 rpm. Afterward, the planktonic cells and spent medium were discarded, and the adhered biomass was rinsed twice with distilled water. Biofilm biomass and minimum biofilm inhibitory concentration (MBIC) were determined using the crystal violet assay. The well with no bacterial biofilm and an OD600 absorption of zero was considered the MBIC. Results from at least three separate biological replicates were averaged.
In the crystal violet assay, the microplates or Calgary biofilm device were rinsed twice with 200 μl of 0.9% saline, then stained with 200 μl of a 0.1% crystal violet solution for 30minutes. Following staining, the microplates and pegs were washed three times with 200 μl of ddH2O to remove excess dye. Biofilm quantification was performed by sonication using a 250HT™ ultrasonic cleaner (VWR International) set at 60 Hz for 10 minutes into 200 μl of 70% ethanol, and absorbance was read at 600 nm using 70% ethanol as the blank.

In assay [3] the test system is 11 different gram-positive and gram-negative bacteria as well as 7 different fungi, in total 18 microbes. The experiment in a line: Combination antimicrobial % efficacy in comparison to silver (MIC, MBC/MFC, MBIC averaged). Conditions: molar ratios Zinc 1:Carvacrol 3:Resveratrol 1:THC 0.1:CBD 0.1, averaged over all microbes and MIC, minimum of three biological repeats. The text has this: Samples of 11 different gram-positive and gram-negative bacteria as well as 7 different fungi, in total 18 microbes included Pseudomonas aeruginosa ATCC 27853, Pseudomonas aeruginosa PAO1, Klebsiella pneumoniae ATCC 11296, Staphylococcus aureus ATCC 25923, Methicillin resistant S. aureus (MRSA) ATCC 33591, Escherichia coli ATCC 25922,Enterococcus faecium ATCC 19434, Staphylococcus epidermidis ATCC 12228, Enterococcus faecalis ATCC 29212, Proteus mirabilisATCC 35659, Acinetobacter baumannii CDC strain AR Bank #0033, Candida albicans ATCC 90028, Candida glabrata ATCC 2001, Candida parasilosis ATCC 22019, Candida krusei ATCC 14243, Candida tropicalis ATCC 13803, Candida auris ATCC MYA-5002, Aspergillus fumigatusATCC 16404 were used.
Metal (loid)-based antimicrobials (MBAs) including, silver nitrate (AgNO3, Sigma-Aldrich, St Louis, MO, USA Lot #M3259), potassium tellurite (K2TeO3, Sigma-Aldrich, St Louis, MO, USA, Cat #P2358-12C), hydrogen tetrachloroaurate (III) trihydrate (AuCl4.3H2O, Alfa Acsar Tweksbury, MA, USA, Lot #U17G046), zinc oxide nanoparticles, <100 nm (Sigma Aldrich), zinc sulfate (ZnSO4·1H2O), and zinc sulfate (ZnSO4.7H2O) were received from Fisher Scientific (Fair Lawn, NJ, USA, Lot #723689). […]
Planktonic Susceptibility. […] MIC was determined based on visible bacterial growth. […]

For a further assay, the system named is microbes. Put plainly: Evaluation of zinc sources for antimicrobial properties. Conditions: comparison of zinc sources.

With `C[N+](C)(C)CC(=O)O` [Betaine (0.1%), Betaine], in assay [1] (unit inferred, unit assumed), the Bactericidal (MBC) is 1 µg/mL and the Bacteriostatic (MIC) was found to be 1 µg/mL. In addition, in assay [2], the “Biofilm Inhibition (MBIC)” value is given as 1.
For the compound `Cc1ccc(C(C)C)cc1O` [Carvacrol, 5-Isopropyl-2-methylphenol], the “Total antimicrobial efficacy percent over silver alone, including Antibacterial and antibiofilm efficacy (%)” value in assay [3] amounted to 1.3%.
For the compound `OO` [H2O2 (1.5%), hydrogen peroxide], in assay [1] (unit inferred, unit assumed), the Bactericidal (MBC) came to 0.5 µg/mL and the Bacteriostatic (MIC) is 0.5 µg/mL. The “Biofilm Inhibition (MBIC)” value in assay [2] amounted to 0.5.
In the case of `OO` [H2O2 (3%), hydrogen peroxide], in assay [1] (unit inferred, unit assumed), the Bactericidal (MBC) turned out to be 0.5 µg/mL and the Bacteriostatic (MIC) was 0.25 µg/mL. In assay [2], the “Biofilm Inhibition (MBIC)” value is on record as 0.5.
On to `O.O.O.O.O.O.O.O=S(=O)([O-])[O-].[Zn+2]` [zinc sulfate heptahydrate], for which the “Antimicrobial effects of zinc source (in words)” value in the assay with microbes was “comparable to zinc sulfate monohydrate”.
On to “benzalkonium chloride [Liquid BZK (0.1%)]”, for which the Bacteriostatic (MIC) in assay [1] (unit inferred, unit assumed) was found to be 0.25 µg/mL. For the same compound, the “Bactericidal (MBC)” value in assay [1] (unit not given) was “(0.25-0.5)”. Further, the “Biofilm Inhibition (MBIC)” value in assay [2] is on record as “(0.25-0.5)”.
